Laboratory results from PubChem BioAssay AID1918999 (Molecular Pharmacology Branch, DTP, NCI, 2023).
pIC50: −log10 of the molar value.

System: 556581-035-R-J1-PDC complex spheroid growth
Test: Anticancer human tumor 556581-035-R-J1-PDC patient-derived ovarian carcinoma cell line growth inhibition [AhR]
Details: for pIC50: curve of first compound; for viability, T/C: stronger effect = lower value
Summary of the method: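 Complex tumor spheroids co-cultured with HUVEC and human MSC stroma; AhR antagonists tested in combination with standard-of-care and investigational agents. Top concentration at or near clinical Cmax (else 10 microM), half-log dilutions; growth expressed as percent test/control.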

[1] = second compound 0.1 µM, first compound 0.0316 µM
[2] = second compound 0.1 µM, first compound 0.1 µM
[3] = second compound 0.1 µM, first compound 0.316 µM
[4] = second compound 0.1 µM, first compound 1 µM
[5] = second compound 0.1 µM, first compound 3.16 µM
[6] = second compound 0.1 µM, first compound 10 µM
[7] = second compound 0.316 µM, first compound 0.0316 µM
[8] = second compound 0.316 µM, first compound 0.1 µM
[9] = second compound 0.316 µM, first compound 0.316 µM
[10] = second compound 0.316 µM, first compound 1 µM
[11] = second compound 0.316 µM, first compound 3.16 µM
[12] = second compound 0.316 µM, first compound 10 µM
[13] = second compound 1 µM, first compound 0.0316 µM
[14] = second compound 1 µM, first compound 0.1 µM
[15] = second compound 1 µM, first compound 0.316 µM
[16] = second compound 1 µM, first compound 1 µM
[17] = second compound 1 µM, first compound 3.16 µM
[18] = second compound 1 µM, first compound 10 µM
[19] = second compound 3.16 µM, first compound 0.0316 µM
[20] = second compound 3.16 µM, first compound 0.1 µM
[21] = second compound 3.16 µM, first compound 0.316 µM
[22] = second compound 3.16 µM, first compound 1 µM
[23] = second compound 3.16 µM, first compound 3.16 µM
[24] = second compound 3.16 µM, first compound 10 µM
[25] = second compound 10 µM, first compound 0.0316 µM
[26] = second compound 10 µM, first compound 0.1 µM
[27] = second compound 10 µM, first compound 0.316 µM
[28] = second compound 10 µM, first compound 1 µM
[29] = second compound 10 µM, first compound 3.16 µM
[30] = second compound 10 µM, first compound 10 µM
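For viability, T/C in this document: compound exposure lasted 7 days; 100% = DMSO vehicle control growth.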

## CC1(C)CCC(CN2CCN(c3ccc(C(=O)NS(=O)(=O)c4ccc(NCC5CCOCC5)c([N+](=O)[O-])c4)c(Oc4cnc5[nH]ccc5c4)c3)CC2)=C(c2ccc(Cl)cc2)C1 + Cc1ccccc1N=Nc1ccc(NC(=O)c2ccnn2C)c(C)c1
Second compound 0.1 µM
  pIC50: < 5.00
Second compound 0.316 µM
  pIC50: < 5.00
Second compound 1 µM
  pIC50: < 5.00
Second compound 3.16 µM
  pIC50: < 5.00
Second compound 10 µM
  pIC50: < 5.00
[1]
  viability, T/C: 97.1%
[2]
  viability, T/C: 108%
[3]
  viability, T/C: 106%
[4]
  viability, T/C: 103%
[5]
  viability, T/C: 106%
[6]
  viability, T/C: 82.4%
[7]
  viability, T/C: 99.3%
[8]
  viability, T/C: 105%
[9]
  viability, T/C: 113%
[10]
  viability, T/C: 99.6%
[11]
  viability, T/C: 108%
[12]
  viability, T/C: 85.9%
[13]
  viability, T/C: 102%
[14]
  viability, T/C: 101%
[15]
  viability, T/C: 109%
[16]
  viability, T/C: 98.3%
[17]
  viability, T/C: 97.5%
[18]
  viability, T/C: 78.1%
[19]
  viability, T/C: 96.7%
[20]
  viability, T/C: 97.1%
[21]
  viability, T/C: 97.7%
[22]
  viability, T/C: 97.9%
[23]
  viability, T/C: 103%
[24]
  viability, T/C: 90.3%
[25]
  viability, T/C: 101%
[26]
  viability, T/C: 97.5%
[27]
  viability, T/C: 97.6%
[28]
  viability, T/C: 95.6%
[29]
  viability, T/C: 86.7%
[30]
  viability, T/C: 77.2%

## CCN(c1cc(-c2ccc(CN3CCOCC3)cc2)cc(C(=O)NCc2c(C)cc(C)[nH]c2=O)c1C)C1CCOCC1 + CC(CO)NC(=O)c1cc(-c2ccc(Cl)cc2)nn(-c2cnn(C)c2)c1=O
Second compound 0.1 µM
  pIC50: < 5.52
Second compound 0.316 µM
  pIC50: < 5.52
Second compound 1 µM
  pIC50: < 5.52
Second compound 3.16 µM
  pIC50: < 5.52
Second compound 10 µM
  pIC50: < 5.52
Second compound 0.1 µM, first compound 0.00949 µM
  viability, T/C: 103%
Second compound 0.1 µM, first compound 0.03 µM
  viability, T/C: 102%
Second compound 0.1 µM, first compound 0.0949 µM
  viability, T/C: 94.7%
Second compound 0.1 µM, first compound 0.3 µM
  viability, T/C: 94.7%
Second compound 0.1 µM, first compound 0.949 µM
  viability, T/C: 102%
Second compound 0.1 µM, first compound 3 µM
  viability, T/C: 91.8%
Second compound 0.316 µM, first compound 0.00949 µM
  viability, T/C: 102%
Second compound 0.316 µM, first compound 0.03 µM
  viability, T/C: 91.2%
Second compound 0.316 µM, first compound 0.0949 µM
  viability, T/C: 96.5%
Second compound 0.316 µM, first compound 0.3 µM
  viability, T/C: 92.2%
Second compound 0.316 µM, first compound 0.949 µM
  viability, T/C: 108%
Second compound 0.316 µM, first compound 3 µM
  viability, T/C: 91.8%
Second compound 1 µM, first compound 0.00949 µM
  viability, T/C: 106%
Second compound 1 µM, first compound 0.03 µM
  viability, T/C: 106%
Second compound 1 µM, first compound 0.0949 µM
  viability, T/C: 117%
Second compound 1 µM, first compound 0.3 µM
  viability, T/C: 105%
Second compound 1 µM, first compound 0.949 µM
  viability, T/C: 87.8%
Second compound 1 µM, first compound 3 µM
  viability, T/C: 106%
Second compound 3.16 µM, first compound 0.00949 µM
  viability, T/C: 106%
Second compound 3.16 µM, first compound 0.03 µM
  viability, T/C: 99.7%
Second compound 3.16 µM, first compound 0.0949 µM
  viability, T/C: 90.7%
Second compound 3.16 µM, first compound 0.3 µM
  viability, T/C: 95%
Second compound 3.16 µM, first compound 0.949 µM
  viability, T/C: 100%
Second compound 3.16 µM, first compound 3 µM
  viability, T/C: 87.9%
Second compound 10 µM, first compound 0.00949 µM
  viability, T/C: 94.9%
Second compound 10 µM, first compound 0.03 µM
  viability, T/C: 101%
Second compound 10 µM, first compound 0.0949 µM
  viability, T/C: 113%
Second compound 10 µM, first compound 0.3 µM
  viability, T/C: 94.6%
Second compound 10 µM, first compound 0.949 µM
  viability, T/C: 89.8%
Second compound 10 µM, first compound 3 µM
  viability, T/C: 94.8%

## CC(C)c1c(-c2ccccc2)nc2c(C#N)c[nH]n2c1=O + Cc1ccccc1N=Nc1ccc(NC(=O)c2ccnn2C)c(C)c1
Second compound 0.1 µM
  pIC50: < 5.00
Second compound 0.316 µM
  pIC50: < 5.00
Second compound 1 µM
  pIC50: < 5.00
Second compound 3.16 µM
  pIC50: < 5.00
Second compound 10 µM
  pIC50: < 5.00
[1]
  viability, T/C: 106%
[2]
  viability, T/C: 111%
[3]
  viability, T/C: 103%
[4]
  viability, T/C: 104%
[5]
  viability, T/C: 97.7%
[6]
  viability, T/C: 93.4%
[7]
  viability, T/C: 96.7%
[8]
  viability, T/C: 94.1%
[9]
  viability, T/C: 107%
[10]
  viability, T/C: 96.1%
[11]
  viability, T/C: 85.5%
[12]
  viability, T/C: 103%
[13]
  viability, T/C: 110%
[14]
  viability, T/C: 108%
[15]
  viability, T/C: 96%
[16]
  viability, T/C: 106%
[17]
  viability, T/C: 106%
[18]
  viability, T/C: 95.8%
[19]
  viability, T/C: 95.6%
[20]
  viability, T/C: 92.2%
[21]
  viability, T/C: 104%
[22]
  viability, T/C: 83.6%
[23]
  viability, T/C: 96%
[24]
  viability, T/C: 87.9%
[25]
  viability, T/C: 94.7%
[26]
  viability, T/C: 86.8%
[27]
  viability, T/C: 80.9%
[28]
  viability, T/C: 91.5%
[29]
  viability, T/C: 84.5%
[30]
  viability, T/C: 76.9%
